In PubChem BioAssay (NCI):
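Exposure lasted 48 hours, with cells grown in 96-well plates and compounds tested at five concentrations. At the GI50, growth is halved. TGI is the concentration that stops growth completely.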

How the values were obtained:
Experiment in all cases: inhibition of tumour cell growth, NCI panel, 48 h
OVCAR-3 ovarian = tested on: OVCAR-3 ovarian
MDA-N = tested on: MDA-N
PC-3 prostate = tested on: PC-3 prostate
M14 melanoma = tested on: M14 melanoma
MALME-3M melanoma = tested on: MALME-3M melanoma
SNB-19 CNS = tested on: SNB-19 CNS
BT-549 breast = tested on: BT-549 breast
SK-MEL-5 melanoma = tested on: SK-MEL-5 melanoma
HS 578T breast = tested on: HS 578T breast
K-562 leukemia = tested on: K-562 leukemia

| SMILES | TGI (OVCAR-3 ovarian) [µM] | TGI (MDA-N) [µM] | TGI (PC-3 prostate) [µM] | TGI (M14 melanoma) [µM] | TGI (MALME-3M melanoma) [µM] | TGI (SNB-19 CNS) [µM] | TGI (BT-549 breast) [µM] | TGI (SK-MEL-5 melanoma) [µM] | TGI (HS 578T breast) [µM] | TGI (K-562 leukemia) [µM] | GI50 (OVCAR-3 ovarian) [µM] |
| --- | --- | --- | --- | --- | --- | --- | --- | --- | --- | --- | --- |
| CCOP(=O)(OCC)c1cc(-c2ccccc2)ccc1N | > 100 | > 100 | > 100 | > 100 | > 100 | > 100 | > 100 | > 100 | > 100 | > 100 | – |
| CC[P+](C#Cc1ccccc1)(c1ccccc1)c1ccccc1 | 4.55 | 3.44 | 6.53 | 3.56 | 4.19 | 17.5 | 3.43 | 2.84 | 7.77 | 0.74 | – |
| COn1cc(CO)c2ccccc21 | > 100 | > 100 | > 100 | > 100 | > 100 | > 100 | > 100 | > 100 | > 100 | > 100 | – |
| CC12CCC(C/C1=N\NC(N)=O)C2(C)C (stereo unspecified) | > 100 | > 100 | > 100 | > 100 | > 100 | > 100 | > 100 | > 100 | > 100 | > 100 | – |
| COc1ccc(N2C(=O)C3c4[nH]c5ccccc5c4C4C(C)CCCC4C3C2=O)cc1 (stereo unspecified) | > 100 | 18.3 | > 100 | > 100 | 52.6 | > 100 | > 33.6 | > 100 | 96 | > 100 | – |
| Nc1n[nH]c2ccccc12 | > 100 | > 100 | > 100 | > 100 | > 100 | > 100 | > 100 | > 100 | > 100 | > 100 | – |
| O=C(O)c1cc2ccccc2c(S(=O)(=O)O)c1O | > 100 | > 100 | > 100 | > 100 | > 100 | > 100 | > 100 | > 100 | > 100 | > 100 | – |
| CC(C)(C)OC(=O)c1ccc(NCc2cc(O)ccc2O)cc1 | 3.9 | 16.3 | 3.75 | 7.35 | 3.99 | 38.8 | 6.9 | 13.1 | 18.6 | 38.1 | – |
| O=C1NN=C(c2c[nH]c3ccccc23)CC1NCc1ccccc1 (stereo unspecified) | > 100 | > 100 | > 100 | > 100 | > 100 | > 100 | > 100 | > 100 | > 100 | > 100 | – |
| CC1OC(n2cc(F)c(=O)[nH]c2=O)C(O[Si](C)(C)C(C)(C)C)C1O[Si](C)(C)C(C)(C)C (stereo unspecified) | 37.3 | 29.3 | 27.3 | 45 | 28.5 | 30.1 | 26.1 | 28.2 | 40.7 | 36.1 | – |
| COC1OC2COC(C)(C)OC2C2OC(C)(C)OC12 (stereo unspecified) | > 100 | > 100 | > 100 | > 100 | > 100 | 54.4 | > 100 | > 100 | 50 | > 100 | – |
| OCC1OC(O[C@H]2CN3[C@H](O)[C@@H](O)[C@H](O)[C@H]3C2O)C(O)C(O)C1O (stereo partly specified) | > 100 | > 100 | > 100 | > 100 | > 100 | > 100 | > 100 | > 100 | > 100 | > 100 | – |
| COC(=O)C(CCSC)NC(=O)CSc1nnc(COc2ccc(Cl)cc2)n1-c1ccccc1 (stereo unspecified) | 5.37 | 34.1 | 38.4 | 33.5 | 37.1 | 47.1 | 37.4 | 32.7 | 55.6 | 69.9 | – |
| C[C@@H]1C(=O)CC2(O)[C@@]13C[C@@H](OC(=O)[C@@H]3O)[C@@H](C)[C@@]21COC1=O (stereo partly specified) | > 100 | > 100 | > 100 | > 100 | > 100 | > 100 | > 100 | > 100 | > 100 | > 100 | – |
| O=CN(O)CC(=O)O | > 100 | > 100 | > 100 | > 100 | > 100 | > 100 | > 100 | > 100 | > 100 | > 100 | – |
| CCOC(=O)C1=C(C)NC(=O)N([N+](=O)[O-])C1c1ccccc1C(F)(F)F (stereo unspecified) | > 100 | 79.7 | > 100 | > 100 | > 100 | > 100 | > 100 | > 100 | > 100 | > 100 | – |
| COc1cc2c3c(n(C)c(=O)c2cc1OC)-c1cc2c(cc1/C3=C/CCCCBr)OCO2 | > 100 | > 100 | > 100 | > 100 | > 100 | > 100 | > 100 | > 100 | > 100 | > 100 | > 100 |
| Cc1cccc(NC(Nc2cccc(C)c2)=C(C(Cl)=C(Cl)Cl)[N+](=O)[O-])c1 | 44.6 | > 35.1 | > 92.9 | > 52 | 29 | > 63 | 26.3 | 19.6 | 11.2 | > 100 | – |
